Patent publication US5162571A, “Phenol derivatives, their production and use” (Takeda Chemical Industries, Ltd., priority 1987, dated 1992)

What was measured:
[1] = system: lipid peroxides production in rat brain homogenates; test: Inhibitory action on lipid peroxides production in rat brain homogenates; type: biochemical; conditions: 10^-5 M
Experimental: Inhibitory action on lipid peroxides production in rat brain homogenates
Method: The male SD rat brain tissue was used as 5% homogenate in phosphate-buffered solution. After incubation of the homogenate for 1 hour at 37° C., the amount of lipid peroxides produced was determined by the thiobarbituric acid method according to the description of Ohkawa et al. (Analytical Biochemistry, 95: 551, 1979)
Test compounds were used as a solution of dimethylsulfoxide. The inhibitory action on lipid peroxide production was expressed as a % inhibition as compared with the amount of production in the vehicle group.

[2] = system: U-46619 (TXA2 mimic)-induced broncho-constriction; test: Inhibitory effect on U-46619 (TXA2 mimic)-induced broncho-constriction in guinea pig; type: in vivo; conditions: Cavia porcellus, ** p < 0.01; for inhibition in vivo at 5 mg/kg: 5 mg/kg p.o.
Experimental: Inhibitory effect on U-46619 (TXA2 mimic)-induced broncho-constrictionin guinea pig
Method: Eight male Hartley guinea pigs were used per one group. The guinea pig anesthetized with urethane (1.5 g/kg, i.p.) was fixed in a dorsal position, subjected to tracheotomy and connected to a respirator through a cannula. A side branch of the tracheal cannula was connected to a respirator (Harvard apparatus rodent respirator Type 680) at the rate of 70 strokes/min. and a constant volume of 3 to 5 ml.
Inflation pressure was kept constant at 10 cm H2 O.
After treatment with gallamine triethiodide (1 mg/kg, i.v.), U-46619 (10 μg/Kg) dissolved in a physiological saline solution was given through a carotid cannula and the airway resistance was measured by the overflow technique of Konzett-Rossler method (Konzett, H. and Rossler, R., Naunyn-Schmiedegerg's Arch, Exp. Path. Pharmak., 195, 71-74 (1940). A test compound was suspended in 5% gum arabic solution and was administered orally 1 hour before the treatment with U-46619.
Alternatively, a test compound was dissolved in aqueous 50% dimethylsulfoxide solution and administered interveneously in the dosage of 0.1 ml/100 g body weight 9 minutes before the treatment of U-46619.

[3] = molecular target: T1, specific [^3 H] U-46619 binding to guinea pig platelet membrane (Cavia porcellus, UniProt A0A286Y4I8); test: Inhibition of specific [^3 H] U-46619 binding to guinea pig platelet membrane; conditions: [^3 H] U-46619, 25° C., 30 min; read-out: IC50 (Concentration for 50% inhibition)
T1 construct: Platelet membranes were prepared according to the following procedure; from tissue; host or cells: guinea pig platelet membranes
T1 sequence (A0A286Y4I8 1-347): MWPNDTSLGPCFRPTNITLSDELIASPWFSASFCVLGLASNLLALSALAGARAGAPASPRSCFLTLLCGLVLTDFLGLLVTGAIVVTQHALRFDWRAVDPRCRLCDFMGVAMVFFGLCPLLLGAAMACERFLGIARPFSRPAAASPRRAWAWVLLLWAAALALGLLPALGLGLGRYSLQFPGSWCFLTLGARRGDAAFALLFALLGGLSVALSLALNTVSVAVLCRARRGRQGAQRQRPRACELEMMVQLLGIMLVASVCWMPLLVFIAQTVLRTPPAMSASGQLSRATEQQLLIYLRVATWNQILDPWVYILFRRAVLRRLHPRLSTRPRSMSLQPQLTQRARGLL
Experimental: Inhibition of specific [^3 H] U-46619 binding to guinea pig platelet membrane
Method: Blood from normal guinea pig was collected into 0.315% citrate solution containing aspirin (final concentration 1 mM) and was centrifuged at 3000 r.p.m. for […]. The PRP (platelet rich plasma) was centrifuged at 4800 r.p.m for 10 min. at 4° C. Platelet membranes were prepared according to the following procedure: In order to remove the residual plasma protein, the platelet pellet was washed once with 30 ml of buffer containing 25 mM Tris-HCl/5 mM MgCl2 (pH 7.4) and recentrifuged to pellet the platelets. The platelets were then resuspended in 20 ml of the same buffer, and the cells were disrupted by sonication. The sonication was performed on ice using a Kontes Sonicator (Vineland, N.J.). The platelets were sonicated for a total of 90 sec. with a 15 sec. burst followed by a 15 sec. intermission. The sonicated mixture was centrifuged at 100,000×g for 1 hour and the membrane fraction was suspended in the same buffer. The protein concentration was adjusted to 1 mg/ml.
The binding assay was performed at 25° C. for 30 min. One ml of the resuspended membrane fraction was incubated with […] of [^3 H] U-46619. The incubation mixture was filtered through a glass fiber membrane (GF/C, whatman) to separate the membrane bound from free [^3 H] U-46619. The membranes were quickly washed twice with 5 ml of cold buffer, mixed with 4 ml of ACS scintillation fluid and counted for [^3 H] U-46619.

[4] = molecular target: T2, Thromboxane A2 (TXA2) receptor (Oryctolagus cuniculus, UniProt Q6WQI8); test: Thromboxane A2 (TXA2) receptor antagonism: inhibitory effect on contraction of rabbit aorta by TXA2-mimics; type: cell-based; conditions: for inhibition at 0.1 µM: 10^-7 M; for inhibition at 1 µM: 10^-6 M; for inhibition at 10 µM: 10^-5 M
T2 construct: contraction by TXA2 mimics U-44069 or U-46619
T2 sequence (Q6WQI8 1-233): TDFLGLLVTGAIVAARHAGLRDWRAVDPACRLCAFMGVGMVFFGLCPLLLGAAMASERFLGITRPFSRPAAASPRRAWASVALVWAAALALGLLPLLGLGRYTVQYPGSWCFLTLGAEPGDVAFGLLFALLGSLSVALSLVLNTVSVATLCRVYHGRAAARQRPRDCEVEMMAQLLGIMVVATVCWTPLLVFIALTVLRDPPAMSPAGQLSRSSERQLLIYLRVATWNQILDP
Experimental: Thromboxane A2 (TXA2) receptor antagonism
Inhibitory effect on contraction of rabbit aorta by thromboxan A2 (TXA2)-mimics
Method: A spiral strip of the rabbit aorta (2-3 mm wide, about 3 cm long) was suspended in Krebs-Henseleit solution under the load of 2 g. The Krebs-Henseleit solution was saturated with a mixed gas of 95%O2 -5%CO2 and warmed at 37° C. Inhibition of the contraction of the vascular strip caused by a TXA2 mimic substance U-44069^1) (10^-7 M) or U-46619^2) (3×10 ^-8 M), by pretreatment with Compound No. 13 30 minutes before was studied.
1) U-44069: (5Z, 9α, 11α, 13E, 15S)-15-hydroxy-9,11-(epoxymethano)-prosta-5,13-dienoic acid (manufacturedby The Upjohn Company in U.S.A.)
2) U-46619: (5Z, 9α, 11α, […], 15S)-15-hydroxy-11,9-(epoxymethano)-prosta-5,13-dienoic acid (manufacturedby Cayman Chemical Company)
In Table 5, "*" represents addition of U-46619.

[5] = molecular target: T3, 5-Lipoxygenase (Rattus norvegicus, UniProt P12527); test: 5-Lipoxygenase inhibitory activity (5-HETE production in RBL-1 cells); type: cell-based; conditions: read-out: Inhibitory effect on 5-HETE production (%); for inhibition at 10 µM: 10^-5 M; for inhibition at 1 µM: 10^-6 M; for inhibition at 0.1 µM: 10^-7 M
T3 construct: RBL-1 cells (rat basophilic leukemia cells); endogenous in cells; host or cells: RBL-1 (rat basophilic leukemia cells)
T3 sequence (P12527 1-673): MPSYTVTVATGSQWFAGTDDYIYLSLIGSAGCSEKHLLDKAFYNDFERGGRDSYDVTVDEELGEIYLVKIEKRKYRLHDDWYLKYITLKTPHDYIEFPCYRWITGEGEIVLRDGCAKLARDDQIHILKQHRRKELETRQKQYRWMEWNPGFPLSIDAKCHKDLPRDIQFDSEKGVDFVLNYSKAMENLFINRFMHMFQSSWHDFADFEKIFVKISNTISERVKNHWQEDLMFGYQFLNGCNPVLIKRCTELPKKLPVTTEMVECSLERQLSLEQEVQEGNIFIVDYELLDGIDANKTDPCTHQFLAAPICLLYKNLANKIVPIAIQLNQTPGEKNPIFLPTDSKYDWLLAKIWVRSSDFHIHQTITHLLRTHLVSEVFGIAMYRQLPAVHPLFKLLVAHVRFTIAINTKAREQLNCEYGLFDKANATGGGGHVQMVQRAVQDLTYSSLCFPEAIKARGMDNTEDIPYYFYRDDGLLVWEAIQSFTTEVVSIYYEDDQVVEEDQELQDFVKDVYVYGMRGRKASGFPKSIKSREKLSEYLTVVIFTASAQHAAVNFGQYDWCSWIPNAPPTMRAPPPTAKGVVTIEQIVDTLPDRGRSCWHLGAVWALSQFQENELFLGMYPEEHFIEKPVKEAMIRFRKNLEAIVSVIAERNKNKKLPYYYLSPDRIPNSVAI
Experimental: 5-Lipoxygenase inhibitory activity
Method: 10^7 RBL-1 cells (rat basophilic leukemia cells) were suspended in 0.5 ml of MCM (mast cell medium), and test solutions (made up of 0.5 ml of MCM, 50 μg of arachidonic acid, 10 μg of A-23187 (calcium ionophore) and 1 μM, 0.01 μM and 0.001 μM as the final concentration of the phenol compound, respectively) prepared previously were added respectively to the suspension, followed by reaction at 37° C. for 20 minutes. After the conclusion of the reaction, 4 ml of ethanol and 1,4-dimethoxy-2-methyl-3-(3-methoxypropyl)naphthalene as the internal reference drug were added to the reaction solution, and the mixture was shaken thoroughly and allowed to stand at room temperature for 10 minutes. Then, it was centrifuged (2000 r.p.m.) for 10 minutes, and the supernatant fluid was separated and concentrated to dryness under reduced pressure. 0.5 ml of 60% aqueous methanol was added to the concentrate, and 100 μl of the resulting solution was taken and subjected to high-performance liquid chromatography to determine the amount of 5-HETE (5-hydroxy-eicosatetraenoic acid). Determination of 5-HETE was made through measurement of an absorption at 237 nm with a UV absorption monitor.
The 5-HETE production inhibitory effect (IE) was expressed by [formula] wherein a is a peak height or peak area corrected by the peak for the internal reference when the phenol compound is not contained; b is a peak height or peak area corrected by the peak for the internal reference when the phenol compound is contained.

[6] = addition of U-46619 (3×10^-8 M) (*)
[7] = iv, 1.25 mg/kg i.v., 9 minutes before U-46619
[8] = U-44069 (10^-7 M)-induced contraction
[9] = po, 0.31 mg/kg p.o., 1 hour before U-46619

SMILES: CCCCCCC(c1ccc(F)cc1)c1c(C)c(C)cc(C)c1O (stereo not drawn) [Compound 6]
- Inhibition (%) [1]: 100%

SMILES: Cc1c(C)c2c(c(C(CCCCCC(=O)O)c3ccc(F)cc3)c1O)CCC2=O (stereo not drawn) [Compound 37, 7-(6,7-dimethyl-5-hydroxy-1-oxoindan-4-yl)-7-(4-fluorophenyl)heptanoic acid]
- inhibition in vivo at 1.25 mg/kg ([2]; po, 1.25 mg/kg p.o., 1 hour before U-46619): 59%
- IC50 [3]: 13 nM
- inhibition at 0.1 µM [4, 6]: 100%

SMILES: Cc1c(C)c(Cl)c(C)c(C(CCCCCC(=O)O)c2ccc(F)cc2)c1O (stereo not drawn) [Compound 17]
- inhibition in vivo at 1.25 mg/kg [2, 7]: 71%
- IC50 [3]: 840 nM
- inhibition at 1 µM [4, 8]: 98%
- inhibition at 0.1 µM [4, 8]: 12%

SMILES: Cc1c(C)c(CO)c(C)c(C(CCCCCC(=O)O)c2ccc(F)cc2)c1O (stereo not drawn) [Compound 32, 7-(4-fluorophenyl)-7-(6-hydroxy-3-hydroxymethyl-2,4,5-trimethylphenyl)heptanoic acid]
- inhibition in vivo at 0.31 mg/kg [2, 9]: 57%
- IC50 [3]: 32 nM
- inhibition at 1 µM [4, 6]: 100%
- inhibition at 0.1 µM [4, 6]: 95%

SMILES: Cc1c(C)c2c(c(C(CCCCCC(=O)O)c3ccc(F)cc3)c1O)CCC2 (stereo not drawn) [Compound 22]
- inhibition in vivo at 1.25 mg/kg [2, 7]: 43%
- inhibition in vivo at 5 mg/kg ([2]; po, 1 hour before U-46619): 83%
- IC50 [3]: 160 nM
- inhibition at 10 µM [4, 8]: 100%
- inhibition at 1 µM [4, 8]: 45%

SMILES: Cc1cc(C)c(O)c(C(CCCCCCO)c2ccccc2)c1C (stereo not drawn) [Compound 5, 7-(2-hydroxy-3,5,6-trimethylphenyl)-7-phenylheptanol]
- Inhibition (%) [1]: 100%

SMILES: Cc1c(C)c(C)c(C(CCCCCC(=O)O)c2ccc(F)cc2)c(O)c1C (stereo not drawn) [Compound 9]
- inhibition in vivo at 0.31 mg/kg ([2]; iv, 0.31 mg/kg i.v., 9 minutes before U-46619): 65%
- IC50 [3]: 130 nM
- Inhibition (%) [1]: 100%
- inhibition at 10 µM [4, 8]: 100%
- inhibition at 1 µM [4, 8]: 27%

SMILES: CC(C)(C)c1cc(O)c(O)c(C(CCCCCC(=O)O)c2ccccc2)c1 (stereo not drawn) [Compound 56]
- Inhibition (%) [1]: 100%
- inhibition at 10 µM [5]: 93%
- inhibition at 1 µM [5]: 93%
- inhibition at 0.1 µM [5]: 66%

SMILES: Cc1c(C)c(Cc2ccc(F)cc2)c(C)c(C(CCCCCC(=O)O)c2ccc(F)cc2)c1O (stereo not drawn) [Compound 20]
- Inhibition (%) [1]: 74.5%

SMILES: C=CCON=Cc1c(C)c(C)c(O)c(C(CCCCCC(=O)O)c2ccc(F)cc2)c1C (stereo not drawn) [Compound 52]
- inhibition in vivo at 0.31 mg/kg [2, 9]: 36%
- IC50 [3]: 14 nM
- inhibition at 0.1 µM [4, 6]: 96%

SMILES: Cc1c(C)c(Cc2ccccc2)c(C)c(C(CCCCCC(=O)O)c2ccc(F)cc2)c1O (stereo not drawn) [Compound 19]
- IC50 [3]: 160 nM

SMILES: CC(=O)c1c(C)c(C)c(O)c(C(CCCCCC(=O)O)c2ccc(F)cc2)c1C (stereo not drawn) [Compound 35, 7-(3-acetyl-6-hydroxy-2,4,5-trimethylphenyl)-7-(4-fluorophenyl)heptanoic acid]
- inhibition in vivo at 5 mg/kg ([2]; po, 1 hour before U-46619): 76%
- IC50 [3]: 80 nM
- inhibition at 1 µM [4, 6]: 98%
- inhibition at 0.1 µM [4, 6]: 23%

SMILES: Cc1cc(O)c(O)c(C(CCCCCC(=O)O)c2ccc(F)cc2)c1C (stereo not drawn) [Compound 57, 7-(4-fluorophenyl)-7-(2,3-dihydroxy-5,6-dimethylphenyl)heptanoic acid]
- inhibition at 10 µM [5]: 100%
- inhibition at 1 µM [5]: 90%
- inhibition at 0.1 µM [5]: 27%
